Consider 1 molecule from article PMC13164762, “Development and Validation of an LC-MS/MS Method for the Quantitation of JNJ-64619178 (JNJ) in Mouse Plasma: Characterization of In Vitro and In Vivo Pharmacokinetic Properties” (Molecules, 2026).

Data set [1] can be described thus: Kinetic solubility study. The format is physicochemical. Particulars: PBS, room temperature, read-out: kinetic aqueous solubility. The procedure:
An amount of 500 µL of PBS was taken into a 96-well plate in the required rows. The required volume of the JNJ stock solution was spiked to make the final concentrations of 160, 80, 60, 50, 40, 20, 10, and 5 µg mL^−1. The plate was vortexed at 1000 rpm for 5 min and incubated at room temperature for 2 h. After incubation, aliquots of 100 µL of the samples were collected and diluted 2 times with acetonitrile. Diluted samples were centrifuged at 2200× g for 10 min. Then, 10 µL of supernatant was added to another collection plate, where previously 200 µL of the mobile phase supplemented with 10 µL IS was taken.

For data set [2] the following is noted: input for fu,inc equation; source not given; cited from earlier work.
Data set [3] is described as follows: Matrix stability study in mouse plasma. Conditions: 5 µg mL^−1, 37 °C, approximately 5 h, triplicate, read-out: concentration remaining (%). The format is in vitro ADME. The procedure:
(§1) For the matrix stability study, JNJ was spiked into mouse plasma and brain homogenate at a final concentration of 5 µg mL^−1 and incubated at 37 °C for 5 h on a shaking water bath in triplicate. At the specified sampling times, 50 µL aliquots were taken in the collection plate, followed by quenching with 300 µL acetonitrile containing 10 µL IS. After final collection, samples were vortexed at 1000 rpm for 2 min and centrifuged at 2200× g for 10 min, and the collected supernatant was analyzed using LC-MS/MS. Stability was estimated by determining the % remaining after 5 h of incubation using Equation (1).(1) % remaining=Concentration5h/Concentration0h×100

Data set [4] in a line: Matrix stability study in mouse brain homogenate. The format is in vitro ADME. Conditions: 5 µg mL^−1, 37 °C, approximately 5 h, triplicate, read-out: concentration remaining (%). Here is the method: as §1
Data set [5] can be described thus: Rapid equilibrium dialysis (RED) brain protein binding. The format is in vitro ADME, mouse. Conditions: for fraction unbound at 5 h: mouse, brain homogenate. Here is the method: A rapid equilibrium dialysis (RED) protein binding assay was performed to determine the protein binding of JNJ in plasma and brain matrix. The RED plate was obtained from Thermo Fisher Scientific (Frederick, MD, USA) for the experiment. An aliquot (200 µL) of JNJ spiked plasma/brain homogenate was poured into the donor chamber, and 400 µL dialysis buffer-PBS containing 100 mM sodium phosphate and 150 mM sodium chloride was added into the receiver compartment of each RED insert in triplicate. The plate was kept in incubation for 5 h on the orbital shaker at 37 °C. Following incubation, 50 µL plasma and buffer aliquots were collected separately, and an equal volume of opposite matrix was added. Collected samples were processed as previously described in Section 4.6 and analyzed using LC-MS/MS. Degree of protein binding (%) was calculated by the following equation:(6) Protein bound (%)=Concentrationdonor cell−Concentrationreceiver cell/Concentrationdonor cell×100
On the technique in general: In equilibrium dialysis only unbound substance equilibrates across the membrane.

The nature of data set [6]: Microsomal metabolic stability, mouse liver microsomes. The format is in vitro ADME. Here is the method:
Mouse and human liver microsomes were used for the metabolic stability assay. In brief, the incubation mixture (500 µL) consisted of phosphate-buffered saline (PBS) (100 mM, pH 7.4), microsomal protein (0.5 mg mL^−1), magnesium chloride (10 mM), and NADPH (2 mM). Following pre-incubation of the above reaction mixture for 10 min at 37 °C, the reaction was initiated by spiking JNJ at a final 1 µg mL^−1 concentration. Alongside the test compound, testosterone at a final concentration of 1 µg mL^−1 was incubated as a positive control. All experiments were performed in triplicate. At sampling times of 0, 5, 10, 20, 30, 45, and 60 min, 40 µL samples were collected and quenched with 300 µL ice-chilled acetonitrile supplemented with 10 µL IS. Simultaneously, samples from NADPH-free negative controls were also withdrawn and processed accordingly to confirm any non-enzymatic degradation. Finally, after 1 h of collection, samples were vortexed at 1000 rpm for 1 min and centrifuged at 2200× g for 15 min, and the collected supernatant was analyzed using LC-MS/MS.
The natural logarithm of the area ratio versus time was plotted, and the slope of the curve was calculated by a linear regression equation to generate the elimination rate constant, k (min^−1). CLint was calculated by the following equation:(2) CLint=0.693/t1/2×Volume of incubation mixture (mL)/microsomal protein (mg)
CLH,int of JNJ in the mouse and human liver was then estimated from CLint using the scaling factor.(3) CLH,int=CLint×Microsomal protein (mg)/Liver (g)×Liver weight (g)/Body weight (kg)
Here, 45 and 32 mg of microsomal protein per g of liver weight were applied, and 60 and 25 g of liver weight per kg body weight were used for mouse and human tissue, respectively.
Then, CLH,int was corrected for microsomal binding (CLH,int/fu,inc) and CLH,predict was predicted using the well-stirred model by the following equation:(4) CLH,predict=Q × fu,plasma×CLH,int/fu,inc /Q + fu,plasma×CLH,int/fu,inc
Here, Q is the hepatic blood flow (90 mL min^−1 kg^−1 in mouse), fu,plasma is the fraction unbound in plasma, fu,inc is the fraction unbound in microsomal incubation and CLH,int is included from Equation (3); fu,inc was calculated by adding logP of JNJ (2.3) to the following equation:(5) fu,inc=1/1 + 10^0.53 logP − 1.42

SMILES strings stand for the structures. In brackets after ≈: the same amount, converted by molar mass. Several values for one entry are separate records, joined by “and”; a condition that tells them apart may be missing. Equal entries are not always repeated. Where two headings read alike, the source gives them in different places. Bounds are passed on as bounds.

Usually kinetic solubility stands for solubility judged after dilution from a stock solution rather than from solid. What is called logP is the decadic logarithm of the partition coefficient of the neutral form, usually between octanol and water. On to `Nc1nc2cc(CC[C@H]3C[C@@H](n4ccc5c(N)ncnc54)[C@H](O)[C@@H]3O)ccc2cc1Br` [JNJ, JNJ-64619178], for which, in data set [1], the kinetic solubility at 2 h was 3 ± 0.6 µg/mL (≈ 6.21 µM). The logP in data set [2] was 2.3. Besides, the remaining at 5 h, 5 µg mL^−1 in data set [3] and in data set [4] was around 100% each time. For the same molecule, the “Brain Protein Binding (%)” value in data set [5] (mouse brain homogenate, RED, 5 h, 37 °C, n = 3) amounted to 94 ± 1%. For the same molecule, the fraction unbound at 5 h in data set [5] (mouse brain homogenate, RED, 5 h, 37 °C, n = 3, read-out: Brain Protein Binding (%)) was below 0.06; in data set [5] (mouse brain, read-out: fraction unbound in brain (fu,brain)), 0.057. Also, the “microsomal intrinsic clearance (CLint)” value in data set [6] (MLM, mean ± SD, n = 3) is given as 0.02 ± 0.01 mL min^−1 mg^−1 protein. The “hepatic intrinsic clearance (CLH,int)” value in data set [6] (MLM, scaled from CLint (45 mg protein/g liver, 60 g liver/kg)) is 41 ± 19 mL min^−1 kg^−1 body weight. The “predicted in vivo hepatic clearance (CLH,predict)” value in data set [6] (mice, in vitro scaling, well-stirred model) was 1.6 mL min^−1 kg^−1 body weight and 1.6 ± 0.7 mL min^−1 kg^−1 body weight. Also, the half-life at 1 µg mL^−1 in data set [6] (mouse, liver microsomes, pH 7.4, MLM, mean ± SD, n = 3, read-out: Half-life (t1/2)) amounted to 1.68 ± 0.65 h. In addition, in data set [6] (mouse, liver microsomes, pH 7.4, MLMs, NADPH, 1 µg mL^−1, n = 3, read-out: percent remaining concentration after 1 h incubation), the remaining at 1 h, 1 µg mL^−1 stood at 60 ± 12%.
